Values of other authors as cited in patent publication US20050187388A1, “Method for the preparation of aryl ethers” (priority 2004, published 2005).

Key:
8-OH-DPAT hypothermia = settings: in vivo
serotonin reuptake = serotonin reuptake (Homo sapiens, UniProt P31645)
dopamine reuptake = dopamine reuptake (Homo sapiens, UniProt Q01959)
Chain of dopamine reuptake (Q01959 whole entry): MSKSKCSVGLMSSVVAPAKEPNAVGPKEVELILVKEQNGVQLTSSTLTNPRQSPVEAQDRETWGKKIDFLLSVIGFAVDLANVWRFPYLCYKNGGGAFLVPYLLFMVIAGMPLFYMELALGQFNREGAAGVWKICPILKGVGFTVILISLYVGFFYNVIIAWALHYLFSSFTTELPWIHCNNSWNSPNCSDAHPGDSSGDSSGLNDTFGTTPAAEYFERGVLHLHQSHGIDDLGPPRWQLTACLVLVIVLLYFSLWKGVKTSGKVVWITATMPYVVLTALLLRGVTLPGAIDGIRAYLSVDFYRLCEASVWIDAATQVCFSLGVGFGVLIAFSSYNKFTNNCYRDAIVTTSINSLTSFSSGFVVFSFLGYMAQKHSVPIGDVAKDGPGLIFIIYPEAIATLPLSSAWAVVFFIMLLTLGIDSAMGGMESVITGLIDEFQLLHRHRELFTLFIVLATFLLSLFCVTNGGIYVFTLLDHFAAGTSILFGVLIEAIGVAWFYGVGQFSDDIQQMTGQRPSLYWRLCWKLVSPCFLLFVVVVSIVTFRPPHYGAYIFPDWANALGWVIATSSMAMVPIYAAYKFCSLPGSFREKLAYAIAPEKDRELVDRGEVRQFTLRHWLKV

Chain of serotonin reuptake (P31645 whole entry): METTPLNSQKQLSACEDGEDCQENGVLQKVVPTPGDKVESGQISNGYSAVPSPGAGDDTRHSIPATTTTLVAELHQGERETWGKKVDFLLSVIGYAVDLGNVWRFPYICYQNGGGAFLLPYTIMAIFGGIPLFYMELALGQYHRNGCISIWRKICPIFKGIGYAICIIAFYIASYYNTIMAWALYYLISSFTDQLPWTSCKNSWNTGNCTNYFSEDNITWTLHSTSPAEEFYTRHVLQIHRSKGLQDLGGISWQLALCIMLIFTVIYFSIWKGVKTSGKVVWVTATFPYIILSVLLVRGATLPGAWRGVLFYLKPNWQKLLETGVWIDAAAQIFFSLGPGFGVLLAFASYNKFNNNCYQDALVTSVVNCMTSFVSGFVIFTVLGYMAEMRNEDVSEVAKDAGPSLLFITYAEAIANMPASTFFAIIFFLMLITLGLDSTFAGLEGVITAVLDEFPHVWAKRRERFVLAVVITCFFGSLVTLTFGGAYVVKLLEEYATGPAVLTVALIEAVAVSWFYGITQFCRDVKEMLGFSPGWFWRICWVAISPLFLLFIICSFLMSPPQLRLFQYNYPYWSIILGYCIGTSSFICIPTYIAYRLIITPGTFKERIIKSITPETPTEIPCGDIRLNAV

CCOc1ccccc1O[C@@H](c1ccccc1)[C@@H]1CNCCO1 (racemic) [Reboxetine, 2-[α-(2-ethoxyphenoxy)benzyl]morpholine]
effect in the 8-OH-DPAT hypothermia test (8-OH-DPAT hypothermia): ineffective | serotonin reuptake inhibitory activity (serotonin reuptake): only marginal | dopamine reuptake inhibitory activity (dopamine reuptake): no dopamine reuptake inhibitory activity
